According to paper PMC9504208, “Comprehensive Study of Antiretroviral Drug Permeability at the Cervicovaginal Mucosa via an In Vitro Model” (Pharmaceutics, 2022):
Read-outs that look alike come from different tables or passages of the source.

Assays:
[1] = Bi-directional permeability (Papp) across HEC-1A dual chamber (Transwell) barrier model; assay type: in vitro ADME; details: human, pH 7.4, dapivirine 0.1–10 µM in 1% DMSO, read-out: Absorptive permeability Papp
Protocol: The apical chambers of 12-well polycarbonate and polyester systems (Corning Costar Corp, Cambridge, UK) were seeded with different densities of HEC-1A cells in 500 µL of the medium while 1500 µL culture medium was added to the basolateral chamber. -Medium in both chambers was changed every 48–72 h.

[2] = Cell-associated drug and distribution between apical and basolateral compartments after absorptive permeability assay; assay type: in vitro ADME, human; details: human, pH 7.4; 0.2% Poloxamer in receiver; read-out: Recovery from the apical compartment;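 further: transwell transport run over 2 h at 37 °C, radiolabelled drug quantified by liquid scintillation counting, with insert membranes also counted for mass balance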
Protocol: (§1) All transport experiments were undertaken over a 2-h period (unless stated) at 37 °C in HBSS supplemented with 1% HEPES buffer (Sigma-Aldrich) at pH 7.4 as reported [22]. HBSS was used to prevent the drug from binding to albumin present in cell culture media. All solutions were warmed to 37 °C and experiments were performed on a heated orbital shaker set at 50 RPM. […] Prior to the initiation of the drug transport experiments, TEER was measured. Cell layers were then washed twice with pre-warmed HBSS+1%HEPES transport buffer and equilibrated in the same solution for 30 min at 37 °C. […] The experiment was initiated when either the donor or receiver solutions were added to the respective compartments. Following the addition of donor solution, 20 µL samples were taken immediately from donor and receiver compartments, T = 0 (for assessment of initial concentration and background radioactivity, respectively). Transwells® were then placed on an orbital shaker set at 50 RPM. Samples, either 200 µL (apical) or 600 µL (basolateral), were taken from the receiver compartments at time points T = 30, T = 60, T = 90 and T = 120 and added to polyethylene liquid scintillation vials. Samples were taken in triplicate and replaced with equivalent volumes of the receiver solution. After final sampling, TEER was measured to confirm that there was no disruption to the epithelial barrier during the experimental procedure. Radioactive samples were mixed with 4 mL of scintillation fluid (Fisher Scientific, Waltham, MA, USA) and analysed using a liquid scintillation counter (Beckman Coulter, Brea, CA, USA). The semipermeable membranes of the Transwell® inserts were cut and also placed into scintillation vials for mass balance measurements.

[3] = tested on: HEC-1A cells; assay: as above; assay type: in vitro ADME, human
Protocol: as §1

[4] = ref DrugBank; cited from earlier work
[5] = tested on: HEC-1A barrier model; assay: Permeability of labelled drug across HEC-1A model on coadministration with a second ARV; assay type: in vitro ADME, human; details: labelled drug 10 µM
Protocol: All transport experiments were undertaken over a 2-h period (unless stated) at 37 °C in HBSS supplemented with 1% HEPES buffer (Sigma-Aldrich) at pH 7.4 as reported [22]. HBSS was used to prevent the drug from binding to albumin present in cell culture media. All solutions were warmed to 37 °C and experiments were performed on a heated orbital shaker set at 50 RPM. […] Prior to the initiation of the drug transport experiments, TEER was measured. Cell layers were then washed twice with pre-warmed HBSS+1%HEPES transport buffer and equilibrated in the same solution for 30 min at 37 °C. […] The experiment was initiated when either the donor or receiver solutions were added to the respective compartments. Following the addition of donor solution, 20 µL samples were taken immediately from donor and receiver compartments, T = 0 (for assessment of initial concentration and background radioactivity, respectively). Transwells® were then placed on an orbital shaker set at 50 RPM. […] After final sampling, TEER was measured to confirm that there was no disruption to the epithelial barrier during the experimental procedure. Radioactive samples were mixed with 4 mL of scintillation fluid (Fisher Scientific, Waltham, MA, USA) and analysed using a liquid scintillation counter (Beckman Coulter, Brea, CA, USA). […]

Papp A→B at 2 h ([1]; 0.2% (w/v) Poloxamer in basolateral receiver): 9.52 to 11.5 ×10⁻⁶ cm/s
Papp A→B at 2 h ([1]; no Poloxamer in receiver): 2.5 to 2.61 ×10⁻⁶ cm/s
recovery at 2 h [2]: 19 to 21%
% Drug Distribution Apical ([3]; 0.1 μM): 15.04 ± 0.55%
% Drug Distribution Basolateral ([3]; 0.1 μM): 2.87 ± 0.26%
% Drug Distribution Cell-Associated ([3]; 0.1 μM): 82.10 ± 0.30%
% Drug Distribution Apical ([3]; 0.1 μM + Poloxamer): 16.06 ± 3.26%
% Drug Distribution Basolateral ([3]; 0.1 μM + Poloxamer): 10.56 ± 1.26%
% Drug Distribution Cell-Associated ([3]; 0.1 μM + Poloxamer): 73.37 ± 3.37%
% Drug Distribution Apical ([3]; 1 μM): 14.72 ± 0.10%
% Drug Distribution Basolateral ([3]; 1 μM): 2.13 ± 0.33%
% Drug Distribution Cell-Associated ([3]; 1 μM): 83.15 ± 0.35%
% Drug Distribution Apical ([3]; 1 μM + Poloxamer): 16.47 ± 2.86%
% Drug Distribution Basolateral ([3]; 1 μM + Poloxamer): 11.01 ± 1.41%
% Drug Distribution Cell-Associated ([3]; 1 μM + Poloxamer): 72.51 ± 2.86%
% Drug Distribution Apical ([3]; 5 μM): 14.98 ± 0.76%
% Drug Distribution Basolateral ([3]; 5 μM): 1.86 ± 0.41%
% Drug Distribution Cell-Associated ([3]; 5 μM): 83.16 ± 1.15%
% Drug Distribution Apical ([3]; 5 μM + Poloxamer): 17.47± 2.76%
% Drug Distribution Basolateral ([3]; 5 μM + Poloxamer): 10.78 ± 1.18%
% Drug Distribution Cell-Associated ([3]; 5 μM + Poloxamer): 71.75 ± 2.33%
% Drug Distribution Apical ([3]; 10 μM): 14.52 ± 0.45%
% Drug Distribution Basolateral ([3]; 10 μM): 2.09 ± 0.18%
% Drug Distribution Cell-Associated ([3]; 10 μM): 83.39 ± 0.55%
% Drug Distribution Apical ([3]; 10 μM + Poloxamer): 17.59 ± 3.41%
% Drug Distribution Basolateral ([3]; 10 μM + Poloxamer): 11.72 ± 1.34%
% Drug Distribution Cell-Associated ([3]; 10 μM + Poloxamer): 70.69 ± 2.76%
Recovery from the apical compartment after absorptive permeability assays ([3]; % of initial concentration, no Poloxamer): 15–16%
Absorptive permeability on coadministration with tenofovir or darunavir [5]: not affected
Compound: Cc1cc(C)c(Nc2ccnc(Nc3ccc(C#N)cc3)n2)c(C)c1 [dapivirine, Dapivirine]
logP [4]: 5.6
